Experimental data published in paper PMC7044277 (Nature Communications, 2020).
Where “and” joins values, the source holds several entries; their conditions need not be identical. Identical values can stand only once.

Assays:
Format in all cases: cell-based
320 non-olfactory GPCRs [1] = biological target: T1, 320 non-olfactory GPCRs (Homo sapiens, UniProt P25089)
T1 construct: expressed in transfected cells; host or cells: HTLA cells

320 non-olfactory GPCRs [2] = biological target: T2, 320 non-olfactory GPCRs (Homo sapiens, UniProt P32247)
T2 construct: expressed in transfected cells; host or cells: HTLA cells

320 non-olfactory GPCRs [3] = biological target: T3, 320 non-olfactory GPCRs (Homo sapiens, UniProt P43116); conditions: receptor PTGER2; replicate values, Fig_4g
T3 construct: expressed in transfected cells; host or cells: HTLA cells

320 non-olfactory GPCRs [4] = biological target: T4, 320 non-olfactory GPCRs (Homo sapiens, UniProt P48146); conditions: receptor NPBW2; replicate values, Fig_4g
T4 construct: expressed in transfected cells; host or cells: HTLA cells
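For Fold of Basal in this document: compound tested at 1 µM final concentration.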
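For GPCRome agonism screen response in this document: fold over basal response of each receptor without drug.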

T3 sequence (P43116 whole entry): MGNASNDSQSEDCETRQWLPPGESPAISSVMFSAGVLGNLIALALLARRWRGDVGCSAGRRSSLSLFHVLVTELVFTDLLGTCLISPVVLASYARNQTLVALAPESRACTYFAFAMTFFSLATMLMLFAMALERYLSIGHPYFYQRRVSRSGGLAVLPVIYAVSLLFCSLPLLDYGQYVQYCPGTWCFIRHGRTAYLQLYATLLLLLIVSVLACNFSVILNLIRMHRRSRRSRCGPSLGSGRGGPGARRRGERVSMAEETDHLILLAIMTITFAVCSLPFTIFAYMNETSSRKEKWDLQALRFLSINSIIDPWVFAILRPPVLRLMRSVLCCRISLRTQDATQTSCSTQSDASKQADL
T4 sequence (P48146 whole entry): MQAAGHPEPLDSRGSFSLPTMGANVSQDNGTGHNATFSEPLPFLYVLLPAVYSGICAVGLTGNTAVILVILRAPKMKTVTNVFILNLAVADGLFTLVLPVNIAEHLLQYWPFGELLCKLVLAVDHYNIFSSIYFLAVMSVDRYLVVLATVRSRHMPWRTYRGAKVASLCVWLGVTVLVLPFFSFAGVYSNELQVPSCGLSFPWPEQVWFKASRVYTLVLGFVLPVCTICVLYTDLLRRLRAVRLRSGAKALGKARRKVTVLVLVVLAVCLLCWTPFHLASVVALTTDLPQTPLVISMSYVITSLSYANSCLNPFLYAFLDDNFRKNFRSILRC
T1 sequence (P25089 whole entry): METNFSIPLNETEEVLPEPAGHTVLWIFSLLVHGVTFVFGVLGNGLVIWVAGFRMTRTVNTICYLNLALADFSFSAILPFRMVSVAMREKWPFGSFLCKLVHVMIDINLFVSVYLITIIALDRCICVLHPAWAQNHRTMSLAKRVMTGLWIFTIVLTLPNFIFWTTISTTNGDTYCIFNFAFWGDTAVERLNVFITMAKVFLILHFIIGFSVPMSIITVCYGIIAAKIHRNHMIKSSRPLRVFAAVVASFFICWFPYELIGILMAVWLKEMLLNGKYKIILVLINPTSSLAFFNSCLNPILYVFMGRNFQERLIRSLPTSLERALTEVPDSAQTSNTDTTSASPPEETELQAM
T2 sequence (P32247 whole entry): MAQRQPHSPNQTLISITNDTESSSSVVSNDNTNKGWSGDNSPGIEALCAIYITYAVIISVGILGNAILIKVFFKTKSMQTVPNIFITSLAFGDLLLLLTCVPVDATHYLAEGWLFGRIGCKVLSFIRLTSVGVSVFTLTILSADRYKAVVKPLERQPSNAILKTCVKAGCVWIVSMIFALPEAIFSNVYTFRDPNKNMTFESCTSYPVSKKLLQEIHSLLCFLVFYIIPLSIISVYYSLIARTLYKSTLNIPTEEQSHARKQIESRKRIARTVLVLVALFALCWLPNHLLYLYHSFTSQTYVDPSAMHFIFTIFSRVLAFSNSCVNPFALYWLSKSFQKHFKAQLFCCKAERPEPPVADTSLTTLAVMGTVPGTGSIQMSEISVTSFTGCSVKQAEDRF

Structure (SMILES): CCOc1cccc2cc(C(C)NCC3(O)CCCCC3)oc12 (stereo not shown) [O4LE6]
- Fold of Basal (320 non-olfactory GPCRs [1]): 1.168 and 1.052 and 1.054 and 1.032
- Fold of Basal (320 non-olfactory GPCRs [2]): 1.192 and 1.354 and 1.033 and 1.091
- GPCRome agonism screen response (320 non-olfactory GPCRs [3]): 0.6203 and 0.7336 and 1.113 and 1.811
- GPCRome agonism screen response (320 non-olfactory GPCRs [4]): 0.5262 and 0.8272 and 1.363 and 1.562
